Results reported in patent publication US20260125375A1 (Pfizer Inc., priority 2022, published 2026).
Read-outs that look alike come from different tables or passages of the source.

Biological target: T1, C-CBL (Homo sapiens, UniProt P22681)
T1 construct: endogenous in cells; host or cells: Jurkat HiBit-IL2 reporter cells, CBL-B knocked out by CRISPR
Experiment: Jurkat HiBit-IL2 assay (CBL-B KO), reporter cell line expressing C-CBL only
Type: cell-based
Conditions: geometric mean, read-out: CBL-B KO EC50 (nM) GMean
Method in brief: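 CRISPR knockout Jurkat HiBit-IL2 reporter cells (20,000/well) were preincubated 1 h with compounds (0.1% DMSO), then stimulated 4 h at 37 °C with anti-CD3 (1 μg/ml) and anti-CD28 (2 μg/ml) final. IL-2 was read by HiBiT lytic luminescence, normalized as fold over antibody-only baseline; EC50 reported as geometric mean.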

[1] = CBL-B KO (C-CBL only), anti-CD3/anti-CD28 stimulation 4 hours, Table 16a
[2] = CBL-B KO (expressing C-CBL only), Table 16b (further repetition)

Row | SMILES | EC50 [1] | EC50 [2]
1 | C[C@H](N[C@H]1CCOC1)c1nc(C(F)(F)F)cc2c(-c3cccc([C@H](c4nncn4C)C4CCC4)c3)n[nH]c12 (single isomer, unassigned) [Example C2] | 641 nM | 
2 | C[C@@H](N[C@H]1CCOC1)c1nc(C(F)(F)F)cc2c(-c3cccc([C@H](c4nncn4C)C4CCC4)c3)n[nH]c12 (single isomer, unassigned) [Example C3] | 639 nM | 
3 | C[C@H](NC1CCCC1)c1nc(C(F)(F)F)cc2c(-c3cccc([C@H](c4nncn4C)C4CCC4)c3)n[nH]c12 (single isomer, unassigned) [Example C10] | > 2310 nM | 
4 | C[C@@H](NC1CCCC1)c1nc(C(F)(F)F)cc2c(-c3cccc([C@H](c4nncn4C)C4CCC4)c3)n[nH]c12 (single isomer, unassigned) [Example C11] | 46 nM | 32 nM
5 | C[C@H](N[C@H]1CCC(F)(F)C1)c1nc(C(F)(F)F)cc2c(-c3cccc(C4(Cc5nncn5C)COC4)c3)n[nH]c12 (single isomer, unassigned) [Example C12] | 25 nM | 16 nM
6 | C[C@@H](N[C@H]1CCC(F)(F)C1)c1nc(C(F)(F)F)cc2c(-c3cccc(C4(Cc5nncn5C)COC4)c3)n[nH]c12 (single isomer, unassigned) [Example C13] | 63 nM | 
7 | C[C@@H](NC1CCCC1)c1nc(C(F)(F)F)cc2c(-c3cccc(C4(Cc5nncn5C)COC4)c3)n[nH]c12 (single isomer, unassigned) [Example C15] | 229 nM | 
8 | C[C@H](N[C@@H]1CCC(F)(F)C1)c1nc(C(F)(F)F)cc2c(-c3cccc(C4(Cc5nncn5C)COC4)c3)n[nH]c12 (single isomer, unassigned) [Example C17] | 196 nM | 
9 | C[C@@H](N[C@@H]1CCC(F)(F)C1)c1nc(C(F)(F)F)cc2c(-c3cccc(C4(Cc5nncn5C)COC4)c3)n[nH]c12 (single isomer, unassigned) [Example C18] | 178 nM | 49 nM
10 | CC(c1nc(C(F)(F)F)cc2c(-c3cccc(C4(Cc5nncn5C)COC4)c3)n[nH]c12)N1CCC[C@H](C)C1 (single isomer, unassigned) [Example C19] | 439 nM | 
11 | CC(c1nc(C(F)(F)F)cc2c(-c3cccc(C4(Cc5nncn5C)COC4)c3)n[nH]c12)N1CCC[C@H](C)C1 (single isomer, unassigned) [Example C20] | 78 nM | 56 nM
12 | CC(c1nc(C(F)(F)F)cc2c(-c3cccc(C4(Cc5nncn5C)COC4)c3)n[nH]c12)N1CCCCC1 (single isomer, unassigned) [Example C21, 3-(3-{3-[(4-methyl-4H-1,2,4-triazol-3-yl)methyl]oxetan-3-yl}phenyl)-7-[(1ξ)-1-(piperidin-1-yl)ethyl]-5-(trifluoromethyl)-1H-pyrazolo[3,4-c]pyridine] | 851 nM | 
13 | CC(c1nc(C(F)(F)F)cc2c(-c3cccc(C4(Cc5nncn5C)COC4)c3)n[nH]c12)N1CCCCC1 (single isomer, unassigned) [Example C22, 3-(3-{3-[(4-methyl-4H-1,2,4-triazol-3-yl)methyl]oxetan-3-yl}phenyl)-7-[(1ξ)-1-(piperidin-1-yl)ethyl]-5-(trifluoromethyl)-1H-pyrazolo[3,4-c]pyridine] | 942 nM | 
14 | CC(c1nc(C(F)(F)F)cc2c(-c3cccc(C4(Cc5nncn5C)COC4)c3)n[nH]c12)N1CCOCC1 (single isomer, unassigned) [Example C23, 3-(3-{3-[(4-methyl-4H-1,2,4-triazol-3-yl)methyl]oxetan-3-yl}phenyl)-7-[(1ξ)-1-(morpholin-4-yl)ethyl]-5-(trifluoromethyl)-1H-pyrazolo[3,4-c]pyridine] | 800 nM | 
15 | CC(c1nc(C(F)(F)F)cc2c(-c3cccc(C4(Cc5nncn5C)COC4)c3)n[nH]c12)N1CCOCC1 (single isomer, unassigned) [Example C24, 3-(3-{3-[(4-methyl-4H-1,2,4-triazol-3-yl)methyl]oxetan-3-yl}phenyl)-7-[(1ξ)-1-(morpholin-4-yl)ethyl]-5-(trifluoromethyl)-1H-pyrazolo[3,4-c]pyridine] | 2970 nM | 
16 | CC(c1nc(C(F)(F)F)cc2c(-c3cccc(C4(Cc5nncn5C)COC4)c3)n[nH]c12)N1C[C@@H](F)[C@H](F)C1 (single isomer, unassigned) [Example C25] | 252 nM | 
17 | C[C@H](c1nc(C(F)(F)F)cc2c(-c3cccc(C4(Cc5nncn5C)COC4)c3)n[nH]c12)N1C[C@@H](F)[C@H](F)C1 (single isomer, unassigned) [Example C26] | 1850 nM | 
18 | CC(NC1CNC1)c1nc(C(F)(F)F)cc2c(-c3cccc(C4(Cc5nncn5C)COC4)c3)n[nH]c12 (single isomer, unassigned) [Example C27, N-{(1ξ)-1-[3-(3-{3-[(4-methyl-4H-1,2,4-triazol-3-yl)methyl]oxetan-3-yl}phenyl)-5-(trifluoromethyl)-1H-pyrazolo[3,4-c]pyridin-7-yl]ethyl}azetidin-3-amine] | > 4300 nM | 
19 | CC(NC1CNC1)c1nc(C(F)(F)F)cc2c(-c3cccc(C4(Cc5nncn5C)COC4)c3)n[nH]c12 (single isomer, unassigned) [Example C28, N-{(1ξ)-1-[3-(3-{3-[(4-methyl-4H-1,2,4-triazol-3-yl)methyl]oxetan-3-yl}phenyl)-5-(trifluoromethyl)-1H-pyrazolo[3,4-c]pyridin-7-yl]ethyl}azetidin-3-amine] | > 5190 nM | 

Row | SMILES | EC50 [1] | EC50 [2]
20 | CC1CN(Cc2nc(C(F)(F)F)cc3c(-c4cccc(C5(Cc6nncn6C)COC5)c4)n[nH]c23)CCC1(F)F (single isomer, unassigned) [Example C31, 7-{[(3ξ)-4,4-difluoro-3-methylpiperidin-1-yl]methyl}-3-(3-{3-[(4-methyl-4H-1,2,4-triazol-3-yl)methyl]oxetan-3-yl}phenyl)-5-(trifluoromethyl)-1H-pyrazolo[3,4-c]pyridine] | 1370 nM | 
21 | CC1CN(Cc2nc(C(F)(F)F)cc3c(-c4cccc(C5(Cc6nncn6C)COC5)c4)n[nH]c23)CCC1(F)F (single isomer, unassigned) [Example C32, 7-{[(3ξ)-4,4-difluoro-3-methylpiperidin-1-yl]methyl}-3-(3-{3-[(4-methyl-4H-1,2,4-triazol-3-yl)methyl]oxetan-3-yl}phenyl)-5-(trifluoromethyl)-1H-pyrazolo[3,4-c]pyridine] | 1190 nM | 110 nM
22 | CC(C)NC(C)c1nc(C(F)(F)F)cc2c(-c3cccc([C@H](c4nncn4C)C4CCC4)c3)n[nH]c12 (single isomer, unassigned) [Example C34] | 892 nM | 428 nM
23 | CC(C)NC(C)c1nc(C(F)(F)F)cc2c(-c3cccc([C@H](c4nncn4C)C4CCC4)c3)n[nH]c12 (single isomer, unassigned) [Example C35] | 172 nM | 
24 | C[C@H](N[C@H]1C[C@@H](O)C1)c1nc(C(F)(F)F)cc2c(-c3cccc([C@H](c4nncn4C)C4CCC4)c3)n[nH]c12 (single isomer, unassigned) [Example C36] | 173 nM | 160 nM
25 | C[C@@H](N[C@H]1C[C@@H](O)C1)c1nc(C(F)(F)F)cc2c(-c3cccc([C@H](c4nncn4C)C4CCC4)c3)n[nH]c12 (single isomer, unassigned) [Example C37] | 1040 nM | 
26 | C[C@H](N[C@H]1CCC[C@@H]1O)c1nc(C(F)(F)F)cc2c(-c3cccc([C@H](c4nncn4C)C4CCC4)c3)n[nH]c12 (single isomer, unassigned) [Example C47] | 105 nM | 76 nM
27 | CCNC(C)c1nc(C(F)(F)F)cc2c(-c3cccc([C@H](c4nncn4C)C4CCC4)c3)n[nH]c12 (single isomer, unassigned) [Example C89] |  | 471 nM
28 | C[C@@H](N[C@H]1C[C@H](O)C1)c1nc(C(F)(F)F)cc2c(-c3cccc([C@H](c4nncn4C)C4CCC4)c3)n[nH]c12 (single isomer, unassigned) [Example C92] |  | 525 nM
29 | C[C@H](N[C@H]1C[C@@H](F)C1)c1nc(C(F)(F)F)cc2c(-c3cccc([C@H](c4nncn4C)C4CCC4)c3)n[nH]c12 (single isomer, unassigned) [Example C95] |  | 230 nM
30 | C[C@@H](N[C@H]1C[C@@H](F)C1)c1nc(C(F)(F)F)cc2c(-c3cccc([C@H](c4nncn4C)C4CCC4)c3)n[nH]c12 (single isomer, unassigned) [Example C96] |  | 574 nM
31 | C[C@H](N[C@@H]1CCOC1)c1nc(C(F)(F)F)cc2c(-c3cccc([C@H](c4nncn4C)C4CCC4)c3)n[nH]c12 (single isomer, unassigned) [Example D2] | 465 nM | 425 nM
32 | C[C@@H](N[C@@H]1CCOC1)c1nc(C(F)(F)F)cc2c(-c3cccc([C@H](c4nncn4C)C4CCC4)c3)n[nH]c12 (single isomer, unassigned) [Example D3] | 472 nM | 333 nM
33 | C[C@@H](c1nc(C(F)(F)F)cc2c(-c3cccc(C4(Cc5nncn5C)COC4)c3)n[nH]c12)N1CCC(F)(F)C1 (single isomer, unassigned) [Example D5] | 1380 nM | 
34 | C[C@H](c1nc(C(F)(F)F)cc2c(-c3cccc(C4(Cc5nncn5C)COC4)c3)n[nH]c12)N1CCC(F)(F)C1 (single isomer, unassigned) [Example D6] | 235 nM | 
35 | C[C@@H](c1nc(C(F)(F)F)cc2c(-c3cccc(C4(Cc5nncn5C)COC4)c3)n[nH]c12)N1C[C@H](F)[C@@H](F)C1 (single isomer, unassigned) [Example D7] | 380 nM | 
36 | C[C@H](c1nc(C(F)(F)F)cc2c(-c3cccc(C4(Cc5nncn5C)COC4)c3)n[nH]c12)N1C[C@H](F)[C@@H](F)C1 (single isomer, unassigned) [Example D8] | 1210 nM | 
37 | C[C@@H](c1nc(C(F)(F)F)cc2c(-c3cccc(C4(Cc5nncn5C)COC4)c3)n[nH]c12)N1CC[C@@H](F)C1 (single isomer, unassigned) [Example D9] | 1770 nM | 
